{"source": "patent US9234885B2", "about": "(priority 2011, dated 2016)", "key": {"rVSV-GP-EboV [1]": {"tested_on": "rVSV-GP-EboV", "assay_type": "cell-based, Ebola virus"}, "[2]": {"tested_on": "intracellular cholesterol", "assay_type": "cell-based, grivet monkey"}, "[3]": {"tested_on": "human peripheral blood monocyte-derived dendritic cells and umbilical-vein endothelial cells (HUVEC)"}, "VSV [4]": {"tested_on": "VSV", "assay_type": "cell-based, vesicular stomatitis virus"}, "MARV-Ci67": {"tested_on": "MARV-Ci67", "assay_type": "cell-based, Marburg virus"}, "EBOV-Zaire 1995": {"tested_on": "EBOV-Zaire 1995", "assay_type": "cell-based, Ebola virus"}, "VSV [5]": {"tested_on": "VSV", "assay_type": "cell-based, vesicular stomatitis virus", "remark": "listed apart in the source"}, "rVSV-GP-EboV [6]": {"tested_on": "rVSV-GP-EboV", "assay_type": "cell-based, Ebola virus", "remark": "listed apart in the source"}}, "note": "“Also recorded” adds a separate entry of the source."}
{"compound": "ammonium chloride [NH4Cl]", "values": [{"measurement": "VSV M staining pattern after rVSV-GP-EboV (diffuse = fusion, punctate = block)", "setting": "rVSV-GP-EboV [1]", "value": "discrete punctuate of M staining"}]}
{"compound": "bafilomycin A1 [bafA1]", "values": [{"measurement": "VSV M staining pattern after rVSV-GP-EboV (diffuse = fusion, punctate = block)", "setting": "rVSV-GP-EboV [1]", "value": "discrete punctuate of M staining"}]}
{"compound": "CCN(CC)CCO[C@H]1CC[C@@]2(C)C(=CC[C@@H]3[C@@H]2CC[C@]2(C)C(=O)CC[C@@H]32)C1", "note": "[U18666A, 3-β-[2-(diethylamino)ethoxy]androst-5-en-17-one]", "values": [{"measurement": "time until significant intracellular accumulation of cholesterol is observed", "setting": "[2]", "value": "> 4", "unit": "h"}, {"measurement": "cell number or morphology", "setting": "[3]", "value": "without affecting"}, {"measurement": "VSV M staining pattern after VSV (diffuse = fusion, punctate = block)", "setting": "VSV [4]", "value": "Diffuse M staining"}, {"measurement": "infection by authentic MarV, percentage of infected cells by immunostaining", "setting": "MARV-Ci67", "value": "greatly reduced; also recorded: blocks"}, {"measurement": "viral yield, authentic MarV", "setting": "MARV-Ci67", "value": "Stark reductions"}, {"measurement": "VSV M staining pattern after rVSV-GP-EboV (diffuse = fusion, punctate = block)", "setting": "rVSV-GP-EboV [1]", "value": "only punctate M staining"}, {"measurement": "infection by authentic EboV, percentage of infected cells by immunostaining", "setting": "EBOV-Zaire 1995", "value": "greatly reduced; also recorded: blocks"}, {"measurement": "viral yield, authentic EboV", "setting": "EBOV-Zaire 1995", "value": "Stark reductions"}, {"measurement": "viral infection by VSV", "setting": "VSV [5]", "value": "but not VSV"}, {"measurement": "time after addition to cells until viral infection is inhibited", "setting": "rVSV-GP-EboV [6]", "value": "< 10", "unit": "min"}, {"measurement": "viral infection mediated by EboV GP", "setting": "rVSV-GP-EboV [6]", "value": "potently inhibited"}]}
{"compound": "CN(C)CCCN1c2ccccc2CCc2ccccc21", "note": "[imipramine]", "values": [{"measurement": "infection by authentic MarV, percentage of infected cells by immunostaining", "setting": "MARV-Ci67", "value": "blocks"}, {"measurement": "viral yield, authentic MarV", "setting": "MARV-Ci67", "value": "Stark reductions"}, {"measurement": "infection by authentic EboV, percentage of infected cells by immunostaining", "setting": "EBOV-Zaire 1995", "value": "blocks"}, {"measurement": "viral yield, authentic EboV", "setting": "EBOV-Zaire 1995", "value": "Stark reductions"}, {"measurement": "viral infection by VSV", "setting": "VSV [5]", "value": "but not VSV"}, {"measurement": "viral infection mediated by EboV GP", "setting": "rVSV-GP-EboV [6]", "value": "potently inhibited"}]}
